Measurements as given in US5672603A, “Apoptosis regulating composition” (Otsuka Pharmaceutical Co., Ltd., priority 1991, dated 1997).

Legend:
W/BF1 :(NZW×BXSB)F1 mice = assay: Blood cell analysis in autoimmune disease mice; type: in vivo
Experimental: (§1) W/BF1 :(NZW×BXSB)F1 mice were used at the age of 14 weeks (purchased from Kiwa Experimental Animal). Groups of 10 mice were used in each experiment.
(§2) The mice in respective groups were given a diet (Oriental Yeast), which is usually given to this kind of mice, and water.
(§3) Compound 1 (Lot No. 9D87M) was used as suspended in a 0.5% solution of carborymethylcellulose (CMC, Cellogan). Compound 1 was administered to mice by oral garage in doses of 100 and 300 mg/kg body weight/day for 6 weeks from 14 weeks of age to 20 weeks of age according to the 5-day administration and 2-day cessation schedule. As a control, an untreated group was provided. […] Statistic analysis was performed by the generalized Wilcoxon test with respect to the untreated group.
(2) For blood cell analysis, the blood was sampled from the fundus oculi at the age of 14, 16, 18 and 20 weeks. Changes in blood cell (white blood cell, red blood cell and platelet) counts were determined using an automatic blood cell analyzer (Coulter JR, Coulter). The differential (neutrophil and 11 lymphocyte) counts were determined using blood smears stained with Wright-Giemsa stain. For statistical analysis, Student's t test was used, taking the untreated group as control, on each blood sampling day.

[1] = test system: W/BF1 :(NZW×BXSB)F1 mice with spontaneous autoimmune disease; assay: Life-prolonging effect in autoimmune disease mice; type: in vivo
From the text: W/BF1 :(NZW×BXSB)F1 mice are mice with spontaneous autoimmune disease. They are known as an animal model of lupus nephritis accompanied, with high frequency, by hypertension and myocardial infarction [Hang, L. M., et al., J. Exp. Med., 154, 216-221 (1981)]. They develop anti-platelet antibodies with increasing age, showing marked thrombocytopenia, and are used as an animal model of idiopathic thrombocytopenic purpura (ITP) as well [Oyaizu, N., et al., J. Exp. Med. 167, 2017-2077 (1988)]. It has been reported that more than 90% of the model animals die of myocardial infarction or renal failure within 8 months of birth [Ikehara, S., Metabolism and Disease, (Suppl) 26, 169-176 (1989)].
as §1, §2, §3
In the figure, the ordinate represents the survival rate (%) and the abscissa represents the age in weeks (14 weeks to 20 weeks).

[2] = test system: CMK cells (platelet-associated antigen, glycoprotein IIb/IIIa); assay: Expression of platelet-associated antigen of CMK cells (Plt-1 antibody); type: cell-based, human; conditions: 30 μg/ml
Experimental: Compound 1 was dissolved in 1N hydrochloric acid and diluted with fetal calf serum (FCS, Gibco) to give a 1 mg/ml solution. This solution was added to RPMI-1640 medium (Flow Laboratories) supplemented 10% FCS and the mixture was neutralized with 1N NaOH and adjusted to a concentration of 30 μg/ml before use.
CMK cells were established by T. Sato et al. from patients with acute megakaryocytic leukemia. They are known to react with anti-platelet antibodies (anti-glycoprotein IIb/IIIa antibody, anti-glycoprotein Ib antibody and Plt-1 antibody). Moreover, it has mega-karyocyte-like properties, such as formation of α granules and a demarcation membrane in the cytoplasm. Therefore, these cells have been used for the analysis of the growth and differentiation of megakaryocytes [Sato, T., et al., Exp. Hematol., 15, 495 (1987); Sunami, S., et al., Blood, 70., 368 (1987); Komatsu, N., et al., Blood, 74(1), 42-48 (1989); Fuse, A., et al., British J. Haematology, 77, 32-36 (1991); Acta Haematologia Japonica 53(2), 294-295, 317-318 (1990)].
CMK cells were supplied by Dr. Takelruki Sato at the Department of Pediatrics, Chiba University School of Medicine. The cells, 5×10^4 cells/ml, were cultured in RPMI-1640 medium supplemented 10% FCS and subcultured every four days.
CMK cells, 1×10^5 cells/ml, were incubated in 10% FCS-added RPMI-1640 medium, containing 30 μg/ml of Compound 1, for 4 days and the expression of platelet-associated antigen on the cell surface was determined by flow cytometry (Coulter) using FITC-labeled Plt-1 antibody (Coulter). The medium containing no Compound 1 was used as a solvent control.
For the analysis of cell surface antigen, 1×10^6 cells/100 μl of CFIK cells were taken into a tube (Fischer) and reacted with 5 μl of FITC-labeled Plt-1 antibody at 4° C. for 30 minutes. The reaction mixture was washed three times with phosphate buffer containing 0.1% bovine serum albumin and determined for the percentage positive cells and fluorescence intensity.
The above-mentioned Plt-1 antibody (Coulter) is an antibody recognizing the platelet-associated antigen, glycoprotein IIb/IIIa and has been reported to increase with differentiation or maturation of CMK cells [Komatsu, N., et al., Blood, 74(1), 42-48 (1989)].

SMILES: COc1ccc(C(=O)N2CCN(c3ccc4c(c3)CCC(=O)N4)CC2)cc1OC [Compound 1, 6-[4-(3,4-Dimethoxybenzoyl)-1-piperazinyl]-3,4-dihydrocarbostyril]
- Lymphocytes (W/BF1 :(NZW×BXSB)F1 mice; 100 mg/kg, 14 weeks of age): 6.55 ± 1.11 ×10^3 /mm^3
- Neutrophils (W/BF1 :(NZW×BXSB)F1 mice; 100 mg/kg, 14 weeks of age): 0.97 ± 0.21 ×10^3 /mm^3
- Platelets (W/BF1 :(NZW×BXSB)F1 mice; 100 mg/kg, 14 weeks of age): 1225.2 ± 187.6 ×10^3 /mm^3
- Red blood cells (W/BF1 :(NZW×BXSB)F1 mice; 100 mg/kg, 14 weeks of age): 9.08 ± 0.19 ×10^6 /mm^3
- White blood cells (W/BF1 :(NZW×BXSB)F1 mice; 100 mg/kg, 14 weeks of age): 7.53 ± 1.26 ×10^3 /mm^3
- Lymphocytes (W/BF1 :(NZW×BXSB)F1 mice; 100 mg/kg, 16 weeks of age): 9.83 ± 2.72 ×10^3 /mm^3
- Neutrophils (W/BF1 :(NZW×BXSB)F1 mice; 100 mg/kg, 16 weeks of age): 3.01 ± 2.14 ×10^3 /mm^3
- Platelets (W/BF1 :(NZW×BXSB)F1 mice; 100 mg/kg, 16 weeks of age): 749.6 ± 116.6 ×10^3 /mm^3
- White blood cells (W/BF1 :(NZW×BXSB)F1 mice; 100 mg/kg, 16 weeks of age): 12.91 ± 4.76 ×10^3 /mm^3
- Red blood cells (W/BF1 :(NZW×BXSB)F1 mice; 100 mg/kg, 16 weeks of age, *P < 0.05): 9.06 ± 0.19 ×10^6 /mm^3
- Lymphocytes (W/BF1 :(NZW×BXSB)F1 mice; 100 mg/kg, 18 weeks of age): 10.68 ± 3.78 ×10^3 /mm^3
- Neutrophils (W/BF1 :(NZW×BXSB)F1 mice; 100 mg/kg, 18 weeks of age): 5.82 ± 1.65 ×10^3 /mm^3
- Platelets (W/BF1 :(NZW×BXSB)F1 mice; 100 mg/kg, 18 weeks of age): 524.0 ± 105.6 ×10^3 /mm^3
- Red blood cells (W/BF1 :(NZW×BXSB)F1 mice; 100 mg/kg, 18 weeks of age): 8.46 ± 0.34 ×10^6 /mm^3
- White blood cells (W/BF1 :(NZW×BXSB)F1 mice; 100 mg/kg, 18 weeks of age): 16.49 ± 4.98 ×10^3 /mm^3
- Lymphocytes (W/BF1 :(NZW×BXSB)F1 mice; 100 mg/kg, 20 weeks of age): 8.70 ± 1.02 ×10^3 /mm^3
- Neutrophils (W/BF1 :(NZW×BXSB)F1 mice; 100 mg/kg, 20 weeks of age): 3.25 ± 1.06 ×10^3 /mm^3
- Platelets (W/BF1 :(NZW×BXSB)F1 mice; 100 mg/kg, 20 weeks of age): 341.1 ± 111.9 ×10^3 /mm^3
- White blood cells (W/BF1 :(NZW×BXSB)F1 mice; 100 mg/kg, 20 weeks of age): 11.72 ± 1.71 ×10^3 /mm^3
- Red blood cells (W/BF1 :(NZW×BXSB)F1 mice; 100 mg/kg, 20 weeks of age, *P < 0.05): 8.29 ± 0.37 ×10^6 /mm^3
- Inhibition of decrease in platelet count (in words) (W/BF1 :(NZW×BXSB)F1 mice; 300 mg/kg/day, 20 weeks of age, vs untreated): significant inhibition
- Lymphocytes (W/BF1 :(NZW×BXSB)F1 mice; 300 mg/kg, 14 weeks of age): 4.50 ± 0.63 ×10^3 /mm^3
- Neutrophils (W/BF1 :(NZW×BXSB)F1 mice; 300 mg/kg, 14 weeks of age): 0.79 ± 0.19 ×10^3 /mm^3
- Platelets (W/BF1 :(NZW×BXSB)F1 mice; 300 mg/kg, 14 weeks of age): 1316.8 ± 86.3 ×10^3 /mm^3
- Red blood cells (W/BF1 :(NZW×BXSB)F1 mice; 300 mg/kg, 14 weeks of age): 9.17 ± 0.21 ×10^6 /mm^3
- White blood cells (W/BF1 :(NZW×BXSB)F1 mice; 300 mg/kg, 14 weeks of age): 5.46 ± 0.74 ×10^3 /mm^3
- Lymphocytes (W/BF1 :(NZW×BXSB)F1 mice; 300 mg/kg, 16 weeks of age): 7.01 ± 0.92 ×10^3 /mm^3
- Neutrophils (W/BF1 :(NZW×BXSB)F1 mice; 300 mg/kg, 16 weeks of age): 1.86 ± 0.40 ×10^3 /mm^3
- Platelets (W/BF1 :(NZW×BXSB)F1 mice; 300 mg/kg, 16 weeks of age): 1055.8 ± 72.0 ×10^3 /mm^3
- Red blood cells (W/BF1 :(NZW×BXSB)F1 mice; 300 mg/kg, 16 weeks of age): 8.43 ± 0.30 ×10^6 /mm^3
- White blood cells (W/BF1 :(NZW×BXSB)F1 mice; 300 mg/kg, 16 weeks of age): 9.36 ± 1.77 ×10^3 /mm^3
- Lymphocytes (W/BF1 :(NZW×BXSB)F1 mice; 300 mg/kg, 18 weeks of age): 6.16 ± 0.88 ×10^3 /mm^3
- Neutrophils (W/BF1 :(NZW×BXSB)F1 mice; 300 mg/kg, 18 weeks of age): 5.65 ± 2.77 ×10^3 /mm^3
- Platelets (W/BF1 :(NZW×BXSB)F1 mice; 300 mg/kg, 18 weeks of age): 980.0 ± 114.4 ×10^3 /mm^3
- Red blood cells (W/BF1 :(NZW×BXSB)F1 mice; 300 mg/kg, 18 weeks of age): 8.83 ± 0.32 ×10^6 /mm^3
- White blood cells (W/BF1 :(NZW×BXSB)F1 mice; 300 mg/kg, 18 weeks of age): 11.90 ± 3.52 ×10^3 /mm^3
- Lymphocytes (W/BF1 :(NZW×BXSB)F1 mice; 300 mg/kg, 20 weeks of age): 10.73 ± 5.81 ×10^3 /mm^3
- Neutrophils (W/BF1 :(NZW×BXSB)F1 mice; 300 mg/kg, 20 weeks of age): 2.24 ± 0.23 ×10^3 /mm^3
- Red blood cells (W/BF1 :(NZW×BXSB)F1 mice; 300 mg/kg, 20 weeks of age): 7.90 ± 0.30 ×10^6 /mm^3
- White blood cells (W/BF1 :(NZW×BXSB)F1 mice; 300 mg/kg, 20 weeks of age): 12.97 ± 5.95 ×10^3 /mm^3
- Platelets (W/BF1 :(NZW×BXSB)F1 mice; 300 mg/kg, 20 weeks of age, **P < 0.01): 823.3 ± 24.5 ×10^3 /mm^3
- Red blood cell count (in words) (W/BF1 :(NZW×BXSB)F1 mice; compared with the platelet count result): A similar result was found for red blood cell count
- Effect on white blood cell count (in words) (W/BF1 :(NZW×BXSB)F1 mice; mouse, in vivo): no effect on this parameter
- Deaths till 20 weeks of age ([1]; 100 mg/kg/day oral, untreated: two, one and three dead at 17, 18, 19 weeks): no death occurred
- Animals found dead at 18 weeks of age ([1]; 300 mg/kg/day oral, groups of 10): two
- Life-prolonging effect (in words) ([1]; 100 and 300 mg/kg/day oral): significant life-prolonging effect
- Change in percentage of Plt-1 positive cells (in words) [2]: no change in the percentage of positive cells
- Cell count ([2]; 4 days, solvent control 5.8): 3.2 10^5 /ml
- Plt-1 percentage positive cells (%) ([2]; 4 days, solvent control 96.1): 96.5%
- activity at 30 µg/mL ([2]; Homo sapiens, CMK, 96 h, 4 days, solvent control 100, read-out: Plt-1 mean fluorescence intensity (%)): 192%
- fold induction at 30 µg/mL ([2]; Homo sapiens, CMK, read-out: Increase in expression of platelet-associated antigen): 2
